Measurements from ChEMBL document CHEMBL4813933, “Discovery of Thanafactin A, a Linear, Proline-Containing Octalipopeptide from Pseudomonas sp. SH-C52, Motivated by Genome Mining” (J Nat Prod, 2021).
Calls of active or inactive are those of the source.

Assays:
[1] = target: T1, Cathepsin K (Homo sapiens) (UniProt P43235); test: Inhibition of human cathepsin K at 10 uM using Z-Leu-Arg-AMC as substrate incubated for 60 mins by fluorometric assay
T1 sequence (whole entry): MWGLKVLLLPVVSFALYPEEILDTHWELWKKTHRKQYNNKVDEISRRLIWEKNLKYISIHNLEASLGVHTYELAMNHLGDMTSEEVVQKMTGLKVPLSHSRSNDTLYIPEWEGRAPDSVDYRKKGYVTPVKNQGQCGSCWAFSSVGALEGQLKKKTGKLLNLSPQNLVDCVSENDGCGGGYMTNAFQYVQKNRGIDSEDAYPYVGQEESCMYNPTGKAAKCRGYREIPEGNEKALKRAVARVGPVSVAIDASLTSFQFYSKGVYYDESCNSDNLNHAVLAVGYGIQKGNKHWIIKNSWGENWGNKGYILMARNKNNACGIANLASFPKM

[2] = tested on: Chromobacterium violaceum; test: Inhibition of quorum sensing system in Chromobacterium violaceum CV026 assessed as reduction in swarming motility at 1 mg/ml measured after 1 hr
Staphylococcus aureus = test: Inhibition of quorum sensing system in Staphylococcus aureus PC322 assessed as reduction in swarming motility at 1 mg/ml measured after 1 hr

Measured: inhibition

CCCCCCC[C@@H](O)CC(=O)N[C@@H](C(=O)N[C@H](C)C(=O)N[C@H](CCC(N)=O)C(=O)N[C@@H](C)C(=O)N[C@@H](C(=O)N[C@@H](C)C(=O)N1CCC[C@H]1C(=O)N[C@H](C(=O)O)[C@@H](C)O)C(C)C)C(C)C
inactive: all assays above
